Reference: patent US20230390291A1, “TREATMENT OF SKIN DISORDERS WITH COMPOSITIONS COMPRISING AN EGFR INHIBITOR” (Sol-Gel Technologies Ltd., priority 2018, published 2023)
Where a name gives a salt, the structure may show the parent alone. Read-outs that look alike come from different tables or passages of the source.

How the values were obtained:
[1] = cited from earlier work
Ki67 = experiment: Epidermal proliferation of transplants, Ki67 immunohistochemical staining; assay type: in vivo, beige-SCID mice; settings: xenotransplants after 14 days of treatment
Protocol: From the study of Example 11, the human skin xenotransplants were harvested and fixed in 10% saline-buffered formalin overnight followed by 70% ethanol. Sections were stained and visualized with immunohistochemistry.
Antigen retrieval was performed on the slides for 20 minutes in a microwave followed by cooling at room temperature for 25 minutes. Specimens were blocked for 30 minutes to prevent nonspecific binding and incubated with the primary antibody (Ab) overnight. The following primary antibodies were used: mouse anti human Ki67. Samples were then washed and incubated for 30 minutes with a biotinylated secondary antibody (Jackson ImmunoResearch, West Grove, Pa.). Finally, samples were washed and incubated with streptavidin-horseradish peroxidase (Jackson ImmunoResearch, West Grove, Pa.). […] Samples were examined using light microscopy.
Slides were evaluated by experienced blinded observers. The fields of immunostained sections were counted in three areas and presented randomly to the observer(s).

[2] = test system: psoriasis-induced human skin xenotransplants; experiment: Histological evaluation of psoriasis-induced xenotransplants; assay type: in vivo, beige-SCID mice; settings: topical for 14 days, histology on Day 56
From the text: The objective of this study was to determine the efficacy of Erlotinib 5% as provided herein compared to the vehicle and Dexamethasone as shown at the Table below. The evaluation was based on histology analysis following application of the respective test formulations.
The efficacy study has been conducted on female mice. The total duration of the experiment was 8 weeks, upon receiving of the human skin. Normal skin from healthy volunteers were obtained for grafting. Healthy human abdominal skin pieces with a width of 0.4 mm and surface area of 1.5×1.5 cm were provided. The skin sample was preserved in isotonic saline solution and transplanted within 6-12 hours after skin donation. In addition, blood samples were collected from psoriatic patients having classic plaque psoriasis and not undergoing any treatment. 20 mL blood samples were taken from both males and females psoriatic patients (from psoriatic patients having classic plaque psoriasis and not undergoing any treatment), and peripheral blood mononuclear cells (PBMC) were separated immediately after blood withdrawal.
Mice: Beige-severe combined immunodeficient mice C.B-17/IcrHsdscid-bg (beige-SCID) mice (weight ˜25 g) were included in this study. Mice were monitored twice a week for vital signs such as weight, food intake, coat, eyes, anal genital areas, discharge/soiling, behavior and criteria related to skin transplantation. Normal healthy human donor skin were transplanted onto the beige-SCID mice as previously described (See Keren A. et al., Novel nanosome delivery system combined with siRNA targeting the antimicrobial gene DFB4: a new approach for psoriasis management?ExpDermatol. 2014; 23:464-465; Bracke S. et al.,Targeted silencing of DEFB4 in a bioengineered skin-humanized mouse model for psoriasis: development of siRNA SECosome-based novel therapies. ExpDermatol. 2014 ;23:199-201; Zaretsky M. et al., Directed evolution of a soluble human IL-17A receptor for the inhibition of psoriasis plaque formation in a mouse model. Chem Biol. 2013 21; 20:202-2; Gilhar A. et al., The beneficial effect of blocking Kv1.3 in the psoriasiform SCID mouse model. J Invest Dermatol. 2011;131:118 124; Keren A. et al., Innate lymphoid cells 3 induce psoriasis in xenotransplanted healthy human skin. J Allergy Clin Immunol. 2018;142:305-308.e6.).
British Journal of Pharmacology 2010; 159:842-855).
Four weeks following the engraftment, each mouse was injected (intradermally) with 1×10^7 IL-2 enriched allogeneic PBMC's from psoriatic patients (1×10^7 cells injected/mouse). Cells from different psoriasis patients were equally distributed between treatment groups. Each patient was represented in each treatment group.
Fourteen days following cells injections, the mice were divided into treatment groups (Table, see below) and treated according to the timeline indicated below (see Scheme 1). Each transplant was equally topically treated (50 μg) by using a sterile spatula.
Dexamethasone (D2915, Sigma): was freshly prepared for each administration by dilution in saline to final concentration (50 mg/ml). Dexamethasone serves as a positive control and was administered topically twice daily for 14 days following cells injections (at Day 42 following human skin transplantation) until the end of the study (Day 56).
The vehicle was administered topically (50 μg) once daily for 14 days as well.
On Day 56, the entire skin graft was excised and placed in 10% formaldehyde in saline overnight. Then, the specimens were placed in 70% ethanol and embedded and stained according to the standard Hematoxylin/Eosin protocol.
Skin graft histological assessment was performed (according to the psoriatic criteria including epidermal thickness) using light microscopy, and two observers blindly performed the evaluations. Epidermal thickness was determined using an ocular micrometer at a minimum of 50 points along the epidermis selected to represent points of maximal and minimal thickness. […]

[3] = number of transplants out of 10

C#Cc1cccc(Nc2ncnc3cc(OCCOC)c(OCCOC)cc23)c1 [Erlotinib hydrochloride]
Solubility ([1]; in acetone): practically insoluble | Solubility ([1]; in acetonitrile): practically insoluble | Solubility ([1]; in ethyl acetate): practically insoluble | Solubility ([1]; in hexane): practically insoluble | Solubility ([1]; in methanol): slightly soluble | Solubility ([1]; in water): very slightly soluble

C#Cc1cccc(Nc2ncnc3cc(OCCOC)c(OCCOC)cc23)c1 [Erlotinib, N-(3-ethynylphenyl)-6,7-bis(2-methoxyethoxy)-4-quinazolinamine]
proliferation index (Ki-67) compared to vehicle-treated xenotransplants (Ki67): significant decrease

C[C@@H]1C[C@H]2[C@@H]3CCC4=CC(=O)C=C[C@]4(C)[C@@]3(F)[C@@H](O)C[C@]2(C)[C@@]1(O)C(=O)CO [Dexamethasone]
Complete Recovery [2, 3]: 9/10 | Partial Recovery [2, 3]: 1/10 | Psoriatic Features [2, 3]: 0/10 | Complete Recovery ([2]; percent of transplants): (90%) | Partial Recovery ([2]; percent of transplants): (10%) | Psoriatic Features ([2]; percent of transplants): (0%)
